From patent US20220273659A1, “HETEROCYCLIC COMPOUNDS AS KINASE INHIBITORS” (NUVATION BIO INC., priority 2019, published 2022)
Where a name gives a salt, the structure may show the parent alone. Read-outs that look alike come from different tables or passages of the source.

Key:
[1] = target: T1, FMS kinase (Homo sapiens, UniProt P07333); test: LanthaScreen Eu Kinase Binding Assay (ATP, fluorescent-PolyGT substrate); assay type: biochemical
T1 construct: purchased Invitrogen (Life Technologies)
Method in brief: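 Kinase (1.25 nM) preincubated 10 min with 3-fold compound dilutions, then ATP 10 μM and fluorescent PolyGT substrate 200 nM added for 1 h in the dark at room temperature. Stopped with Tb-antibody (4 nM) and EDTA 20 mM; TR-FRET at 340 nm excitation, 495/520 nm emission; IC50 from four-parameter fit.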

[2] = target: T2, CDK2 (cyclin A) (Homo sapiens, UniProt P24941); test: Z'-LYTE kinase assay; assay type: biochemical
T2 construct: purchased Invitrogen Life Technologies (assay service)
Method in brief: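 FRET-based Z′-LYTE read-out using 1.22–10.3 ng CDK2/cyclin A with Ser/Thr 12 peptide (2 μM in the 2× mix) and ATP (31 μM as the 4× solution), in HEPES pH 7.5, MgCl2, EGTA and BRIJ-35, for 60 min at room temperature. After 1 h of development, the 445/520 nm emission was read, and percent inhibition was fitted to a four-parameter logistic curve for IC50.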

[3] = target: T3, CDK6 (Homo sapiens, UniProt Q00534); test: In vitro kinase inhibition IC50, luminescence (ADP Glo), retinoblastoma substrate; assay type: biochemical; conditions: read-out: CDK6/D1 IC50
T3 construct: purchased Invitrogen PR8422B
Method in brief: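 Recombinant CDK6 (5 nM) with retinoblastoma substrate (1 μM) and 25 μM ATP, compound at final 0.1–200 nM, incubated 2 h at room temperature. ADP formed detected by ADP-Glo luminescence. IC50 from four-parameter logistic fit of percent inhibition.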

[4] = target: T4, CDK4 (Homo sapiens, UniProt P11802); test: as above; assay type: biochemical; conditions: read-out: CDK4/D1 IC50
T4 construct: purchased Invitrogen PR8064A
Method in brief: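 CDK4 enzyme (5 nM, Invitrogen) was combined with test compound and a mix of retinoblastoma substrate (1 μM) plus ATP (25 μM) in kinase buffer, 30 μL/well in 96-well half area white plates. After 2H at room temperature, ADP Glo reagent stopped the reaction for 45 min, then detection reagent was added and luminescence was read.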

[5] = target: T5, CDK1 (cyclin B) (Homo sapiens, UniProt P06493); test: Z'-LYTE kinase assay; assay type: biochemical
T5 construct: purchased Invitrogen Life Technologies (assay service)
Protocol: The plates were shaken for 30 seconds, and incubated for 60 minutes at room temperature. […] The plates were read on fluorescence plate reader with Dual emission at 445 nm and 520 nm.
The following equations were used for Z′-LYTE™ Screening Assay Data Analysis.

[6] = target: T6, PI3Kδ kinase (Homo sapiens, UniProt O00329); test: PI3Kδ kinase assay (ADP-Glo, Reaction Biology); assay type: biochemical
T6 construct: purchased Reaction Biology Corporation (assay service)
Method in brief: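 Kinase in Tris-HCl 40 mM pH 7.5, MgCl2 20 mM, orthovanadate 3 mM, DTT 2 mM, 0.05% CHAPS, 1% DMSO, preincubated 10 min at room temperature with compound (about 0.5 nM–100 μM). ATP started a 30-min reaction at 30 °C. ADP-Glo luminescence converted to μM ADP via standard curve; IC50 from nonlinear regression.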

[7] = test system: MCF-7 breast adenocarcinoma cells; test: Cancer cell proliferation assay, single agent (cell viability); assay type: cell-based; conditions: Homo sapiens, MCF7, Table 4; Rb positive; treatment 144 Hr with medium change at 72 Hr; Cell Titer-Glo or resazurin
Method in brief: (§1)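 Cells seeded day 1, then exposed on day 2 to 7–9 compound concentrations (e.g. 1.1 nM–10 μM); BT-549 for 24 h, MCF-7 and DU4475 for 144 h with medium change at 72 h. Viability by CellTiter-Glo or resazurin; IC50 from variable-slope sigmoidal fit.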

[8] = test system: DU4475 breast carcinoma cells; test: as above; assay type: cell-based; conditions: Homo sapiens, DU-4475; Table 4; Rb negative; treatment 144 Hr with medium change at 72 Hr; Cell Titer-Glo or resazurin
Method in brief: as §1

T1 sequence (P07333 20-972): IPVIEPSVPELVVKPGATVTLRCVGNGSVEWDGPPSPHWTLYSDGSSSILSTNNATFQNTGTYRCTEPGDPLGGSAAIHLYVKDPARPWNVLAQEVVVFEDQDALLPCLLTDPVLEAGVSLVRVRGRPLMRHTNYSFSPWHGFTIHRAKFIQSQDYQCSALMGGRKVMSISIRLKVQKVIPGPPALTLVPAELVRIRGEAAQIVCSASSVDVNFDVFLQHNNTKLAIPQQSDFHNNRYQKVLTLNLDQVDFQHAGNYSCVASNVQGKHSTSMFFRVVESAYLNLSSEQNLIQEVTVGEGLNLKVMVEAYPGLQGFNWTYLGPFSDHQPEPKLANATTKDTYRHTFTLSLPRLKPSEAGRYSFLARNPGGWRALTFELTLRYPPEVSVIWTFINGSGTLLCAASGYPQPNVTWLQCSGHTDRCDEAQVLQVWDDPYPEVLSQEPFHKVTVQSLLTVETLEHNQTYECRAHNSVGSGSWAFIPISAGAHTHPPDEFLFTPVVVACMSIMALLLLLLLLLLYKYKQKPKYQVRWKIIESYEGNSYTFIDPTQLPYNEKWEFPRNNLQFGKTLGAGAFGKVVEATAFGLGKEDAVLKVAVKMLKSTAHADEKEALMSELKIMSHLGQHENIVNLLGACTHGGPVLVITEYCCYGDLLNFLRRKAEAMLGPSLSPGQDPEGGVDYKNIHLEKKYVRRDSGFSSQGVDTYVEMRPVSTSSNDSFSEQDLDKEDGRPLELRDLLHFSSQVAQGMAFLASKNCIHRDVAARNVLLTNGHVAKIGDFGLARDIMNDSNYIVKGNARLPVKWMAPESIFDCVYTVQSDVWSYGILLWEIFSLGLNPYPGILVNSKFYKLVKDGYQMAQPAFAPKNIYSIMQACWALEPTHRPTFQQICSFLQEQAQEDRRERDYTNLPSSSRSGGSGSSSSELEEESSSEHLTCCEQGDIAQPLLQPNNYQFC
T3 sequence (Q00534 whole entry): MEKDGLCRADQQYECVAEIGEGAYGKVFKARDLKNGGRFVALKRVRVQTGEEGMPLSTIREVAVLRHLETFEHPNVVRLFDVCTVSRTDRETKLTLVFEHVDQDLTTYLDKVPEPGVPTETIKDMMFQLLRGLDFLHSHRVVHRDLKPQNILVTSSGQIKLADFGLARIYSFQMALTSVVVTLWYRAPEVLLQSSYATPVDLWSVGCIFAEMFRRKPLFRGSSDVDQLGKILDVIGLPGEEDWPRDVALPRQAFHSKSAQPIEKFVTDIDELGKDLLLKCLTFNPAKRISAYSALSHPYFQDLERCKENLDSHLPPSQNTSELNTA
T3 sequence (P24385 whole entry partner): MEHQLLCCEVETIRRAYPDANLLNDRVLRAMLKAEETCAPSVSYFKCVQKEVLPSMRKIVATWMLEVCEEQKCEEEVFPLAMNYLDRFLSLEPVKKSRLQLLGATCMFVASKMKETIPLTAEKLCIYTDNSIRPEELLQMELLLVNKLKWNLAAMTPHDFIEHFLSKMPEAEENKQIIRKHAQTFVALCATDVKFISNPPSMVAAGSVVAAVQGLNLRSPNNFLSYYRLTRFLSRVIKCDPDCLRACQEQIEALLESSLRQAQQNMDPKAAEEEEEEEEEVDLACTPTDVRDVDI
T5 sequence (P06493 whole entry): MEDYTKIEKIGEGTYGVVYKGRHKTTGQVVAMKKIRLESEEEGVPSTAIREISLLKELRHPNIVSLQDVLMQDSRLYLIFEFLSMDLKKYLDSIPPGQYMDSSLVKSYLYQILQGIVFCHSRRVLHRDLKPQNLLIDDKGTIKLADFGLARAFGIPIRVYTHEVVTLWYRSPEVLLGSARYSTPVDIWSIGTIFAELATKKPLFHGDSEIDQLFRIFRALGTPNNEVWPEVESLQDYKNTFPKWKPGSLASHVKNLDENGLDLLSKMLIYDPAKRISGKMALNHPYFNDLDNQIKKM
T5 sequence (P14635 whole entry partner): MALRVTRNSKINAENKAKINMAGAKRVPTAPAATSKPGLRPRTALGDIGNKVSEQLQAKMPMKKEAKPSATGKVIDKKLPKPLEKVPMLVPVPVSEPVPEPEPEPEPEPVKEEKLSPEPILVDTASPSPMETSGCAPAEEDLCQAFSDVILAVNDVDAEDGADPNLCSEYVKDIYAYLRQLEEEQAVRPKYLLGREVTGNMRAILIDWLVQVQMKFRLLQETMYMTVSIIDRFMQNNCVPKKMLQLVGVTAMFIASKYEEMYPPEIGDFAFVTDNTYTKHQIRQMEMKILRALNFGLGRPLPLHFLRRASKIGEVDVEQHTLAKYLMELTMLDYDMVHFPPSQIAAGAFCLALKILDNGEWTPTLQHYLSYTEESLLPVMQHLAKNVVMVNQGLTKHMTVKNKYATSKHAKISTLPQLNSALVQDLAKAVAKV
T6 sequence (O00329 whole entry): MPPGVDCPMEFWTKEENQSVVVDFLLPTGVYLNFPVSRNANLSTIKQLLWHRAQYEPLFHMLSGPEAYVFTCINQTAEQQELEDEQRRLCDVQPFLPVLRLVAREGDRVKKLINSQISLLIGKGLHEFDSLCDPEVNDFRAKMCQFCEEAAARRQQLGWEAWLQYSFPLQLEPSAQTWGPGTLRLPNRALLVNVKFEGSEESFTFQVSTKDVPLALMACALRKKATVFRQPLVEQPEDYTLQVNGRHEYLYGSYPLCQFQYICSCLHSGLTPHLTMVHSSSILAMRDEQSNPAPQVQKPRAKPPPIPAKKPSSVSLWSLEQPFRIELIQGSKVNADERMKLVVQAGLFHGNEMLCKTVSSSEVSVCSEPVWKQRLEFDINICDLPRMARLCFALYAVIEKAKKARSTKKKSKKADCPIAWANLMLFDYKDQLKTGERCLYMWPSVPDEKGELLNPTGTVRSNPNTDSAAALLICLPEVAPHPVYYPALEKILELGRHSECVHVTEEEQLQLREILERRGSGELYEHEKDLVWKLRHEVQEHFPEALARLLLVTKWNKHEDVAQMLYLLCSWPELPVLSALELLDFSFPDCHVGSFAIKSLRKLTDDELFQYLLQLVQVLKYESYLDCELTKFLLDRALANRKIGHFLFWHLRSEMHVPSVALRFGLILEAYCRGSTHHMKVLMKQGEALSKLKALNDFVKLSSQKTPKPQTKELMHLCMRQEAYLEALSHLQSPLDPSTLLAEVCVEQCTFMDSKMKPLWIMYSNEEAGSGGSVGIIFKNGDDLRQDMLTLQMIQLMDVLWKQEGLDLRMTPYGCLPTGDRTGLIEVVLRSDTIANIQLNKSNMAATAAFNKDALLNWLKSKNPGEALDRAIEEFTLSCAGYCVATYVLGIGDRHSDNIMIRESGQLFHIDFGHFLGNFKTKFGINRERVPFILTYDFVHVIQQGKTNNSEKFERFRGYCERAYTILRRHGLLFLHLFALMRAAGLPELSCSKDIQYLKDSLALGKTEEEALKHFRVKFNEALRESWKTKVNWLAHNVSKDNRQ
T6 sequence (P27986 whole entry partner): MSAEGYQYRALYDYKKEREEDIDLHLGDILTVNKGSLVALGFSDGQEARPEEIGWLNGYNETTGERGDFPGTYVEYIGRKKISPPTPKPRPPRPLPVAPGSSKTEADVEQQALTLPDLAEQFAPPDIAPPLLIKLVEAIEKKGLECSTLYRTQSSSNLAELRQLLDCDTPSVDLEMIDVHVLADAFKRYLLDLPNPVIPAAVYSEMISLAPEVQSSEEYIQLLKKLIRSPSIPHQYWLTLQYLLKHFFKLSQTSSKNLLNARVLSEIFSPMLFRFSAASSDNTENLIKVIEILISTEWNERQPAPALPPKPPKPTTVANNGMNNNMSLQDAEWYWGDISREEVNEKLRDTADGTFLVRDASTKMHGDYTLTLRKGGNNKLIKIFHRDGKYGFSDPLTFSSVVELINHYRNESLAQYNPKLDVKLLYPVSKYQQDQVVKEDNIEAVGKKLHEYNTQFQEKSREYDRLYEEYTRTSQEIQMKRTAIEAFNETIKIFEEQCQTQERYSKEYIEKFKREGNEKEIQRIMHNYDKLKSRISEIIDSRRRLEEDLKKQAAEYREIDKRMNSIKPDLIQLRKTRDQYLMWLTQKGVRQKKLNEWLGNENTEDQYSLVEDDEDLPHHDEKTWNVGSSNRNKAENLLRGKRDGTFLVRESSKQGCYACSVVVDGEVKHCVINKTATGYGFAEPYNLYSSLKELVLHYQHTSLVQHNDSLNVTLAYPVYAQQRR
T4 sequence (P11802 whole entry): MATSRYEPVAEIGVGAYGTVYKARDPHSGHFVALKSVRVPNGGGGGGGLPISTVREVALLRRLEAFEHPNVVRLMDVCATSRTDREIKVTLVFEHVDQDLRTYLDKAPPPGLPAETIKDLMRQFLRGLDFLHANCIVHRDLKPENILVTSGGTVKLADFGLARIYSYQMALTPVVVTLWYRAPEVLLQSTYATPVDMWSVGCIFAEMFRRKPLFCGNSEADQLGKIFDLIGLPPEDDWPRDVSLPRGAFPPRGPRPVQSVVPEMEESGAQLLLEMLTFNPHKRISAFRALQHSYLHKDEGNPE
T4 sequence (P24385 whole entry partner): as the sequence (P24385 whole entry partner) above

SMILES | IC50 [1] [nM] | IC50 [2] [nM] | IC50 [3] [nM] | IC50 [4] [nM] | IC50 ([5]; read-out: CDK1/B IC50) [nM] | IC50 [6] [nM] | IC50 [7] [nM] | IC50 [8] [nM] | IC50 [5] [nM]
N#Cc1cc2cnc(Nc3ccc4c(c3)C(=O)NCC4)nc2n(C2CCCC2)c1=O [Compound No. 6, 8-cyclopentyl-7-oxo-2-((1-oxo-1,2,3,4-tetrahydroisoquinolin-7-yl)amino)-7,8-dihydropyrido[2,3-d]pyrimidine-6-carbonitrile] | < 1 | 873 | 2 | 8 | > 4650 | 163 | 1160 |  | 
CN(C)C1CCc2ccc(Nc3ncc4cc(C#N)c(=O)n(C5CCCC5)c4n3)cc2C1 (stereo not drawn) [Compound No. 48, 8-cyclopentyl-2-((7-(dimethylamino)-5,6,7,8-tetrahydronaphthalen-2-yl)amino)-7-oxo-7,8-dihydropyrido[2,3-d]pyrimidine-6-carbonitrile] | 3 | 140 | 6 | 14 | 488 | 945 | 945 |  | 
CN1CCC(c2ccc(Nc3cc4c(cn3)cc(C#N)c(=O)n4C3CCCC3)cc2)CC1 [Compound No. 89, 1-cyclopentyl-7-((4-(1-methylpiperidin-4-yl)phenyl)amino)-2-oxo-1,2-dihydro-1,6-naphthyridine-3-carbonitrile] |  | 874 | 10 | 20 | > 5000 | 751 |  | 5200 | 
N#Cc1cc2cnc(Nc3ccc4c(c3)CCNC4)cc2n(C2CCCC2)c1=O [Compound No. 90, 1-cyclopentyl-2-oxo-7-((1,2,3,4-tetrahydroisoquinolin-6-yl)amino)-1,2-dihydro-1,6-naphthyridine-3-carbonitrile] |  | 619 | 115 | 132 | > 5000 | 4940 |  | 4900 | 
N#Cc1cc2cnc(Nc3ccc4c(c3)CCNC4)nc2n(C2CCC2)c1=O [Compound No. 91, 8-cyclobutyl-7-oxo-2-((1,2,3,4-tetrahydroisoquinolin-6-yl)amino)-7,8-dihydropyrido[2,3-d]pyrimidine-6-carbonitrile hydrochloride] |  | 79 | 28 | 84 | 913 | 705 |  | 510 | 
CC1(C)NCCc2cc(Nc3ncc4cc(C#N)c(=O)n(C5CCCC5)c4n3)ccc21 [Compound No. 92, 8-cyclopentyl-2-((1,1-dimethyl-1,2,3,4-tetrahydroisoquinolin-6-yl)amino)-7-oxo-7,8-dihydropyrido[2,3-d]pyrimidine-6-carbonitrile] |  | 16 | 6 | 15 | 118 | 725 |  | 420 | 
N#Cc1cc2ccc(Nc3ccc(N4CCNCC4)cc3)nc2n(C2CCCC2)c1=O [Compound No. 94, 1-cyclopentyl-2-oxo-7-((4-(piperazin-1-yl)phenyl)amino)-1,2-dihydro-1,8-naphthyridine-3-carbonitrile] |  | > 5000 | > 200 | > 200 | > 5000 | > 50000 | 1940 | 485 | 
N#Cc1cc2cnc(Nc3ccc4c(c3)CNCC4)cc2n(C2CCCC2)c1=O [Compound No. 95, 1-cyclopentyl-2-oxo-7-((1,2,3,4-tetrahydroisoquinolin-7-yl)amino)-1,2-dihydro-1,6-naphthyridine-3-carbonitrile] |  | 2040 | > 184 | > 200 | > 5000 | 4700 | 3580 | 1500 | 
N#Cc1cc2cnc(Nc3ccc4c(c3)CCNC4)nc2n(C2COCC2O)c1=O (stereo not drawn) [Compound No. 101, 8-(4-hydroxytetrahydrofuran-3-yl)-7-oxo-2-((1,2,3,4-tetrahydroisoquinolin-6-yl)amino)-7,8-dihydropyrido[2,3-d]pyrimidine-6-carbonitrile] | 55 | 1740 | > 200 | > 200 | > 5000 | 7770 | > 30000 | > 30000 | 
N#Cc1cc2ccc(Nc3ccc4c(c3)CNCC4)nc2n(C2CCCC2)c1=O [Compound No. 326, 1-cyclopentyl-2-oxo-7-((1,2,3,4-tetrahydroisoquinolin-7-yl)amino)-1,2-dihydro-1,8-naphthyridine-3-carbonitrile] |  | > 5000 | > 200 | > 200 | > 5000 | > 50000 | 3520 | 4240 | 
CCOCCCn1c(=O)c(C#N)cc2cnc(Nc3ccc4c(c3)CCNC4)nc21 [Compound No. 343, 8-(3-ethoxypropyl)-7-oxo-2-((1,2,3,4-tetrahydroisoquinolin-6-yl)amino)-7,8-dihydropyrido[2,3-d]pyrimidine-6-carbonitrile] | 6.5 | > 3120 | > 200 | > 200 | > 5000 | 770 | 1280 | 5720 | 
N#Cc1cc2cnc(Nc3ccc4c(c3)CCNC4)nc2n(C2CCC(F)(F)C2)c1=O (stereo not drawn) [Compound No. 344, 8-(3,3-difluorocyclopentyl)-7-oxo-2-((1,2,3,4-tetrahydroisoquinolin-6-yl)amino)-7,8-dihydropyrido[2,3-d]pyrimidine-6-carbonitrile] | 3.5 | 201 | 64 | 77.5 | > 4670 | 1630 | 435 | 960 | 
N#Cc1cc2cnc(Nc3ccc4c(c3)CCNC4)nc2n(C2CCCC2O)c1=O (stereo not drawn) [Compound No. 346, 8-(2-hydroxycyclopentyl)-7-oxo-2-((1,2,3,4-tetrahydroisoquinolin-6-yl)amino)-7,8-dihydropyrido[2,3-d]pyrimidine-6-carbonitrile] | 18 | 177 | 57 | > 200 | > 5000 | 10200 | > 30000 | 10100 | 
N#Cc1cc2cnc(NC3CCN(S(=O)(=O)C4CC4)CC3)nc2n(C2CCCC2)c1=O [Compound No. 356, 8-cyclopentyl-2-((1-(cyclopropylsulfonyl)piperidin-4-yl)amino)-7-oxo-7,8-dihydropyrido[2,3-d]pyrimidine-6-carbonitrile] | 55 | 5.5 | 4.5 | 2 |  | 19900 | 175 | 1140 | 55
CCS(=O)(=O)N1CCC(Nc2ncc3cc(C#N)c(=O)n(C4CCCC4)c3n2)CC1 [Compound No. 357, 8-cyclopentyl-2-((1-(ethylsulfonyl)piperidin-4-yl)amino)-7-oxo-7,8-dihydropyrido[2,3-d]pyrimidine-6-carbonitrile] | 490 | 11 | 5.8 | 2.7 |  | > 25300 | 190 | 1300 | 230
CS(=O)(=O)N1CCC(Nc2ncc3cc(C#N)c(=O)n(C4CCC4)c3n2)CC1 [Compound No. 368, 8-cyclobutyl-2-((1-(methylsulfonyl)piperidin-4-yl)amino)-7-oxo-7,8-dihydropyrido [2,3-d] pyrimidine-6-carbonitrile] |  | 28 | 3.4 | 34 |  | 1980 | 405 | 1390 | 331
